# Results as given in PubChem BioAssay (NCI).
#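 A five-concentration, 48-hour dose response in 96-well plates underlies each endpoint, interpolated linearly between surrounding concentrations. GI50: concentration for 50% inhibition of growth. TGI: total growth inhibition.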
# Assays:
# Assay in all cases: NCI anticancer screen, dose series, 48 h
# [1] = test system: SNB-75 CNS
# [2] = test system: SK-MEL-5 melanoma
# [3] = test system: IGROV1 ovarian
# [4] = test system: OVCAR-5 ovarian
# [5] = test system: 786-0 renal
# [6] = test system: SK-MEL-2 melanoma
# [7] = test system: A498 renal
# [8] = test system: ACHN renal
# [9] = test system: UACC-62 melanoma
# [10] = test system: SF-539 CNS
# [11] = test system: COLO 205 colon
# [12] = test system: HCT-116 colon
# [13] = test system: MDA-MB-231 breast
# [14] = test system: RXF 393 renal
# [15] = test system: SF-268 CNS
# [16] = test system: HT29 colon
# [17] = test system: U251 CNS
# [18] = test system: HL-60(TB) leukemia
# [19] = test system: SNB-19 CNS
# [20] = test system: PC-3 prostate
# [21] = test system: SK-MEL-28 melanoma
# [22] = test system: NCI-H460 lung
# [23] = test system: HCC-2998 colon
# [24] = test system: MDA-MB-435
# [25] = test system: MCF7 breast
# [26] = test system: OVCAR-8 ovarian
# [27] = test system: HS 578T breast
smiles,measurement,setting,value
O=C(/C=C/c1ccccc1)c1ccc(O)c(CN2CCN(c3cc4c(cc3F)c(=O)c(C(=O)O)cn4C3CC3)CC2)c1,GI50,[1],378 nM
same,TGI,[1],9.78 µM
same,GI50,[2],1890 nM
same,TGI,[2],7.48 µM
same,GI50,[3],1360 nM
same,TGI,[3],36.6 µM
same,GI50,[4],3.91 µM
same,TGI,[4],> 100 µM
same,GI50,[5],961 nM
same,TGI,[5],> 100 µM
same,GI50,[6],3.3 µM
same,TGI,[6],> 100 µM
same,GI50,[7],941 nM
same,TGI,[7],4.93 µM
same,GI50,[8],1900 nM
same,TGI,[8],13.9 µM
same,GI50,[9],1670 nM
same,TGI,[9],> 100 µM
same,GI50,[10],465 nM
same,TGI,[10],> 100 µM
same,GI50,[11],3.86 µM
same,TGI,[11],74.5 µM
same,GI50,[12],430 nM
same,TGI,[12],> 100 µM
same,GI50,[13],1940 nM
same,TGI,[13],7.65 µM
same,GI50,[14],1550 nM
same,TGI,[14],15.8 µM
same,GI50,[15],2530 nM
same,TGI,[15],> 100 µM
same,GI50,[16],1580 nM
same,TGI,[16],> 100 µM
same,GI50,[17],389 nM
same,TGI,[17],> 100 µM
same,GI50,[18],770 nM
same,TGI,[18],> 100 µM
same,GI50,[19],984 nM
same,TGI,[19],> 100 µM
same,GI50,[20],897 nM
same,TGI,[20],> 100 µM
same,GI50,[21],2130 nM
same,TGI,[21],> 100 µM
same,GI50,[22],3.85 µM
same,TGI,[22],> 100 µM
same,GI50,[23],3.11 µM
same,TGI,[23],53.6 µM
same,GI50,[24],1500 nM
same,TGI,[24],25.7 µM
same,GI50,[25],688 nM
same,TGI,[25],> 100 µM
same,GI50,[26],592 nM
same,TGI,[26],> 100 µM
same,GI50,[27],577 nM
